The experiment deals with T1, OleD (Streptomyces antibioticus, UniProt Q53685, P55A/R82V/R83E/T84P).
T1 construct: made in house; host or cells: PURExpress In Vitro Protein Synthesis Kit (NEB E6800L), cell-free transcription/translation, linear DNA with T7 promoter
The experiment in a line: DLEnCA with purified recombinant OleD, agarose gel readout of MfeI digestion of probe DNA. The experiment is classed as biochemical. To be noted: purified OleD 0.5 μM, acceptor 0.5 mM, 2% agarose gel. The procedure: FIG. 2A-FIG. 2D. DNA-Linked Enzyme-Coupled Assay using purified model enzyme (OleD). A. The OleD-catalyzed glucosylation of kaempferol using UDP-Glc as a donor-molecule. B. Purified recombinant OleD (0.5 μM) was incubated with probe DNA (4.5 nM) in the presence of kaempferol (0.5 mM) and various concentrations of UDP-Glc at 37° C. for 1 hour. Following incubation with TbGT, DNA was digested with MfeI. Digests were analyzed on a 2% agarose gel. […] (ii) A representative gel of the UDP-Glc titration reaction, as-well-as a “ladder” depicting expected DNA digestion sizes, is shown. C. […] Digests were analyzed on a 2% agarose gel (n=4). […] Digests were analyzed on a 2% agarose gel (n=4). […]
In order to verify that DNA protection using TbGT could be used to follow an enzymatic reaction under conditions amenable to downstream DNA analyses, the ability of recombinant OleD to reduce concentrations of UDP-Glc while in the presence of the substrate kaempferol was first tested. […] To identify if this reaction could be monitored by modification of DNA, recombinant OleD was purified (FIG. 5) and incubated with 5-hm-cytosine-modified probe DNA (4.5 nM probe DNA containing 2.5 μM modified 5-hm-cytosines), kaempferol (0.5 mM), and UDP-Glc concentrations varying from 10 μM to 1 mM in a buffered solution. […]

T1 sequence (Q53685 other isoform, or with tags, fused parts or gaps P55A/R82V/R83E/T84P): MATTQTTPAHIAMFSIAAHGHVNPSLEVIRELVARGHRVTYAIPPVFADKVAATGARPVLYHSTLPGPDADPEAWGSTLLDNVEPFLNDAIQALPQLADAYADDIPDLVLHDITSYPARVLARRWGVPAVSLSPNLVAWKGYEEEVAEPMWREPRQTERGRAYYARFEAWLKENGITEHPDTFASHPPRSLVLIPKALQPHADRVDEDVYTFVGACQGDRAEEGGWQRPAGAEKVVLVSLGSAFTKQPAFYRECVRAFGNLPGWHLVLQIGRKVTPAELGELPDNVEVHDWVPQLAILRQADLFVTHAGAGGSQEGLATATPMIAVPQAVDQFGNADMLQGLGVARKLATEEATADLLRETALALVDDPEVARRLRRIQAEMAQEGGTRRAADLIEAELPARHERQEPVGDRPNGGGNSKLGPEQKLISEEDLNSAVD

As for `O=c1c(O)c(-c2ccc(O)cc2)oc2cc(O)cc(O)c12` [I, kaempferol], under “20 μM starting UDP-Glc, all components present”, the “digestion of probe DNA by MfeI (loss of TbGT protection)” value is given as “significant DNA digestion occurred”.

As for `O=C(O)c1ccc(O)cc1` [XI, 4-hydroxybenzoic acid], the “digestion of probe DNA by MfeI (loss of TbGT protection)” value (UDP-Glc titration) is on record as “no DNA was digested”.

The values are drawn from patent publication US10829798B2, “DNA-linked enzyme-coupled assays” (THE REGENTS OF THE UNIVERSITY OF CALIFORNIA, priority 2014, dated 2020).
